Data from US20080139484A1, “1(Beta-D-Glycopyranosyl)-3-Substituted Nitrogenous Heterocyclic Compound, Medicinal Composition Containing the Same, and Medicinal Use Thereof” (KISSEI PHARMACEUTICAL CO., LTD., priority 2004, published 2008).

Experiments:
human SGLT1 = molecular target: T1, human SGLT1 (Homo sapiens, UniProt P13866); assay: Inhibition of methyl-α-D-glucopyranoside (α-MG) uptake in COS-7 cells expressing human SGLT1; type: cell-based; settings: COS-7 cells expressing human SGLT1, 1 mM α-MG, 1 hour incubation at 37° C.
T1 construct: expressed in transfected cells; host or cells: COS-7 cells, transient lipofection (Lipofectamine-2000) of pcDNA3.1(-) vector
T1 sequence (P13866 1-664): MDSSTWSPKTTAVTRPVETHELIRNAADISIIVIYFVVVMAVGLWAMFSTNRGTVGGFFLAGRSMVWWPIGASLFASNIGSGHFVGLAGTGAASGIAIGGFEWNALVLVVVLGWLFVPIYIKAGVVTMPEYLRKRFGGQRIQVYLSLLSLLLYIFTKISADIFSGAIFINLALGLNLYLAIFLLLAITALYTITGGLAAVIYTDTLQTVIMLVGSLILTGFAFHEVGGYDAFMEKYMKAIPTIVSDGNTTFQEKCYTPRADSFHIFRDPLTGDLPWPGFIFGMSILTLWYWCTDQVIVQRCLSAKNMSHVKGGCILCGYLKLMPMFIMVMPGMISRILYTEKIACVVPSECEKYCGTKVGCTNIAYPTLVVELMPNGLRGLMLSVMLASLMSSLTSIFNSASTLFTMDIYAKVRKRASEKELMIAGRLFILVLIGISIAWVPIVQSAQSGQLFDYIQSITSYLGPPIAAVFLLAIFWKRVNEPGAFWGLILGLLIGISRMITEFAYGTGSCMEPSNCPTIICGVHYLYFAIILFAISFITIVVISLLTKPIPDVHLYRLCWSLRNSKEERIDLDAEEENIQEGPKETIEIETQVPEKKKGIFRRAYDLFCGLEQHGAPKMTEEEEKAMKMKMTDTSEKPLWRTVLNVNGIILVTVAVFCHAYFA
Protocol: (§1) Assay for Inhibitory Effects on Human SGLT Activity
(§2) The cDNA library was prepared for PCR amplification by reverse transcription from total RNA deprived from human small intestine (Ori gene) using oligo-dT as a primer. Using this cDNA library as a template, the DNA fragment coding 1 to 2005 bp of human SGLT1 (ACCESSION: M24847), which was reported by Hediger et al., was amplified by PCR method and inserted into the multi-cloning site of pcDNA3.1(−) (Invitrogen). The DNA sequence inserted was perfectly matched to the previously reported sequence.
(§3) The vector expressing human SGLT1 or SGLT2 was transfected into COS-7 cells by lipofection method (Lipofectamine-2000: Invitrogen). First, COS-7 cells were plated 5×10^4 cells/100 μL/well on 96-wells plate and incubated at 37° C. for 2 hours. In addition, per 50 μL medium, 0.3 μg of human SGLT1 or SGLT2 expression vector was mixed with 0.5 μL of Lipofectamine-2000 and the complex solution was prepared. Fifty μL/well of this complex solution was added to COS-7 cells, previously described, and the plate was mixed gently and was used for uptake assay after 2 days culture.
A mixture of non-labeled (Sigma) and ^14C-labeled α-MG (Amersham Pharmacia Biotech) was added to the uptake buffer (pH 7.4; containing 140 mM sodium chloride, 2 mM potassium chloride, 1 mM calcium chloride, 1 mM magnesium chloride, 10 mM 2-[4-(2-hydroxyethyl)-1-piperazinyl]ethane sulfonic acid and 5 mM tris(hydroxymethyl)aminomethane) at the final concentration of 1 mM. A test compound was dissolved in dimethyl sulfoxide, and then appropriately diluted with distilled water. The test compound solution was added to the uptake buffer containing 1 mM α-MG, and designated as a measurement buffer. For the control group, the measurement buffer without any test compound was prepared. For measuring the basal uptake, a basal uptake measurement buffer, which contains 140 mM chorine chloride instead of sodium chloride, was prepared. After removing the culture medium of cells expressing human SGLT1 or human SGLT2, 180 μL of the pre-treatment buffer (the basal uptake buffer without α-MG) was added to each well and incubated at 37° C. for 10 minutes. After repeating the same treatment, the pre-treatment buffer was removed, and then 75 μL per well of the measurement buffer or the basal uptake buffer was added and the cells were incubated at 37° C. […] Radioactivity was measured by means of micro-scintillation counter TopCount (Packard). One hundred % was set to the difference between the uptake in the control group and the basal uptake, and the uptake of methyl α-D-glucopyranoside at each drug concentration was calculated. […]

[1] = Test Example 4: inhibitory effects on blood glucose level increase, liquid meal tolerance test in diabetic rats; type: in vivo; settings: streptozotocin diabetic rats, 2 mg/kg orally, liquid meal load, mean ± S.E.
Protocol: Rats, aged 8 weeks old, were injected streptozotocin (45 mg/kg) intravenously from tail vain. After 1 week, rats were fasted overnight and then glucose tolerance test (2 g/kg) was performed.
After overnight fasted, the diabetic rats were or ally administered a test compound (2 mg/kg), which was dissolved in distilled water, in the drug-treating group, or distilled water alone in a control group. Immediately after the compound administration, 3 mL/body of liquid meal (No. 038, Control diet, assorted with dextrin and maltose; Oriental Yeast Co., Ltd., prepared for 323 g/L) was loaded or ally. The blood was collected from tail artery immediately before and after administration with the time course, and treated with heparin immediately. The blood was centrifuged, and the plasma was collected and quantified the plasma glucose concentration by glucose oxidase method. The values in the Table are presented as the mean ±S.E.

human SGLT2 = molecular target: T2, human SGLT2 (Homo sapiens, UniProt P31639); assay: Inhibition of methyl-α-D-glucopyranoside (α-MG) uptake in COS-7 cells expressing human SGLT2; type: cell-based; settings: COS-7 cells expressing human SGLT2, 1 mM α-MG, 1 hour incubation at 37° C.
T2 construct: expressed in transfected cells; host or cells: COS-7 cells, transient lipofection (Lipofectamine-2000) of pcDNA3.1(-) vector
T2 sequence (P31639 1-672): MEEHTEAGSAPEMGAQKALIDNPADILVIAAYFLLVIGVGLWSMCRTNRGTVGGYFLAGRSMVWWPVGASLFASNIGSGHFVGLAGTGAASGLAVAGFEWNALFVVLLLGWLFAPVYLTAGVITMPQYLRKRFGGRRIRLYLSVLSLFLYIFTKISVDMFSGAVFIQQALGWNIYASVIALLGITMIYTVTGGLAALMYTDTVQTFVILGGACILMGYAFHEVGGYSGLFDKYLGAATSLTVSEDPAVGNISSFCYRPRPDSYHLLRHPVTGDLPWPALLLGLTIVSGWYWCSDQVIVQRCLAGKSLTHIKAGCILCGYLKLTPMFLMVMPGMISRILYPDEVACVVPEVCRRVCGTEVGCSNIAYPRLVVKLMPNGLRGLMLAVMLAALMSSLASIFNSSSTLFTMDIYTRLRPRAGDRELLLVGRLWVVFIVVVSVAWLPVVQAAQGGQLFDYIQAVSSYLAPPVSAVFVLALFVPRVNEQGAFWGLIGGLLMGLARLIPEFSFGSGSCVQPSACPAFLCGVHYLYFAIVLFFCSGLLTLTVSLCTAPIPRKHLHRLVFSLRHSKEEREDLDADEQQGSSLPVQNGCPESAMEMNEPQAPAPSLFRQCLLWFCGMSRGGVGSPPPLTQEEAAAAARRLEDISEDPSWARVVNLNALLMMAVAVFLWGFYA
Protocol: as §1
as §2, with “human kidney” for “human small intestine”, “coding 2” for “coding 1”, “to 2039” for “to 2005”, “human SGLT2” for “human SGLT1”, “(ACCESSION: M95549, M95299),” for “(ACCESSION: M24847),”, “by R. G. Wells” for “by Hediger”
as §3
A mixture of non-labeled (Sigma) and ^14C-labeled α-MG (Amersham Pharmacia Biotech) was added to the uptake buffer (pH 7.4; containing 140 mM sodium chloride, 2 mM potassium chloride, 1 mM calcium chloride, 1 mM magnesium chloride, 10 mM 2-[4-(2-hydroxyethyl)-1-piperazinyl]ethane sulfonic acid and 5 mM tris(hydroxymethyl)aminomethane) at the final concentration of 1 mM. A test compound was dissolved in dimethyl sulfoxide, and then appropriately diluted with distilled water. The test compound solution was added to the uptake buffer containing 1 mM α-MG, and designated as a measurement buffer. For the control group, the measurement buffer without any test compound was prepared. For measuring the basal uptake, a basal uptake measurement buffer, which contains 140 mM chorine chloride instead of sodium chloride, was prepared. After removing the culture medium of cells expressing human SGLT1 or human SGLT2, 180 μL of the pre-treatment buffer (the basal uptake buffer without α-MG) was added to each well and incubated at 37° C. for 10 minutes. After repeating the same treatment, the pre-treatment buffer was removed, and then 75 μL per well of the measurement buffer or the basal uptake buffer was added and the cells were incubated at 37° C. After 1 hour incubation, the measurement buffer was removed and the cells were washed twice with 180 μL per well of the washing buffer (the basal uptake buffer containing 10 mM non-labeled α-MG). The cells were solubilized by 75 μL per well of 0.2 mol/L sodium hydroxide, and then the cell lysates were transferred into PicoPlates (Packard). One hundred fifty μL of Microscint-40 (Packard) was added to the wells and mixed. Radioactivity was measured by means of micro-scintillation counter TopCount (Packard). One hundred % was set to the difference between the uptake in the control group and the basal uptake, and the uptake of methyl α-D-glucopyranoside at each drug concentration was calculated. The drug concentration, at which 50% uptake of methyl α-D-glucopyranoside was inhibited (IC50 value), was calculated using logit plot. The blanks in the Table are untested.

[2] = Test Example 2: effect on urinary glucose excretion; type: in vivo; settings: overnight fasted male SD rats, 7 weeks of age, 1 mg/kg intravenously (3 mL/kg), urine collected for 24 hours
Protocol: As experimental animals, overnight fasted SD rats (CHARLES RIVER LABORATORIES JAPAN. Inc., Crj:CD(SD(IGS), male, 7 weeks of age, 200-230 g) were used.
Example 10 compound of 2.12 mg was dissolved by adding 636 μL of ethanol and 2544 μL of polyethylene glycol 400. And then the solution was mixed with 3180 μL of saline and sonicated. Example 12 compound of 2.18 mg was dissolved by adding 654 μL of ethanol and 2616 μL of polyethylene glycol 400. And then the solution was mixed with 3270 μL of saline and sonicated. These test compound solutions of 0.33 mg/mL were used for administration.
The body weights of rats were measured and the solution of the test compound was intravenously injected to the tail vein of rats at the dose of 3 mL/kg (1 mg/kg as test compound). Collection of urine was performed for 24 hours after the administration. […]
Frozen samples were thawed and mixed well. According to need, a part of samples was diluted with distilled water and the glucose concentration of these samples was measured with a kit for laboratory test: Glucose CII-Test WAKO (Wako Pure Chemical Industries, Ltd.).
The amounts of urinary glucose excretion per 200 g of body weight were calculated from glucose concentration of urinary samples, dilution factor, urinary volume and body weight using the following equation. […]

[3] = Test Example 3: effect on urinary glucose excretion; type: in vivo; settings: overnight fasted male SD rats, 9 weeks of age, 1 mg/kg intravenously (2 mL/kg), urine collected for 24 hours
Protocol: As experimental animals, overnight fasted SD rats (CHARLES RIVER LABORATORIES JAPAN. Inc., Crj:CD(SD)IGS, male, 9 weeks of age, 300-330 g) were used.
Example 346 compound of 2.90 mg was dissolved by adding 29.0 μL of dimethyl sulfoxide and 2320 μL of polyethylene glycol 400. And then, the solution was mixed with 3450 μL of saline. This 0.5 mg/mL solution was used for administration.
Rats were fasted for overnight. The body weights of rats were measured and urinary glucose excretions were calculated as with the Test Example 2 except for intravenously injection to the tail veins of rats at the dose of 2 mL/kg (1 mg/kg as test compound).

SMILES	IC50 (human SGLT1)	IC50 (human SGLT2)	other results
Cc1cccc2c1c(Cc1ccc(CCCC(=O)NC(C)(C)C(=O)N3CCNCC3)cc1)cn2[C@@H]1O[C@H](CO)[C@@H](O)[C@H](O)[C@H]1O [Example 329, 1-(β-D-Glucopyranosyl)-3-(4-[3-{1-(piperazin-1-yl-carbonyl)-1-(methyl)ethylcarbamoyl}propyl]phenyl)methyl-4-methyl-1H-indole]	41 nM	–	–
CCOC(=O)[C@H](CO)NC(=O)CCCc1ccc(Cc2cn([C@@H]3O[C@H](CO)[C@@H](O)[C@H](O)[C@H]3O)c3cccc(C)c23)cc1 [Example 320]	–	–	Plasma glucose concentration 0.5 h ([1]; 0.5 hour after administration): 230 ± 14 mg/dL; Plasma glucose concentration 1 h ([1]; 1 hour after administration): 312 ± 15 mg/dL; Plasma glucose concentration 0 h ([1]; pretreatment (0 h)): 133 ± 10 mg/dL
COc1ccc(Cc2cn([C@@H]3O[C@H](CO)[C@@H](O)[C@H](O)[C@H]3O)c3cccc(C)c23)cc1 [Example 8]	10 nM	0.6 nM	–
Cc1cccc2c1c(Cc1ccc(OCCCNCCC(N)=O)cc1)cn2[C@@H]1O[C@H](CO)[C@@H](O)[C@H](O)[C@H]1O [Example 318, 3-[(4-{3-[2-(Carbamoyl)ethylamino]propoxy}phenyl)methyl]-1-(β-D-glucopyranosyl)-4-methyl-1H-indole]	122 nM	–	–
COc1ccc(Cc2cn([C@@H]3O[C@H](CO)[C@@H](O)[C@H](O)[C@H]3O)c3cc(C)ccc23)cc1 [Example 12, 1-(β-D-glucopyranosyl)-3-(4-methoxybenzyl)-6-methyl-1H-indole]	3200 nM	0.9 nM	Amount of urinary excretion of glucose in 24 hours [2]: 111.8 mg/200 g body weight
COc1ccc(Cc2cn([C@@H]3O[C@H](CO)[C@@H](O)[C@H](O)[C@H]3O)c3ccccc23)c(F)c1 [Example 15]	–	11 nM	–
COc1ccc(Sc2cn([C@@H]3O[C@H](CO)[C@@H](O)[C@H](O)[C@H]3O)c3cc(C)ccc23)cc1 [Example 346, 1-(β-D-Glucopyranosyl)-3-{(4-methoxyphenyl)sulfany}-6-methyl-1H-indole]	–	0.4 nM	Amount of urinary excretion of glucose in 24 hours [3]: 33.12 mg/200 g body weight
CCc1ccc(Cc2cn([C@@H]3O[C@H](CO)[C@@H](O)[C@H](O)[C@H]3O)c3ccccc23)cc1 [Example 10]	–	0.5 nM	Amount of urinary excretion of glucose in 24 hours [2]: 11.2 mg/200 g body weight
